Data taken from paper PMC12948223, “HSP70 Interactome‐Mediated Proteolysis Targeting Chimera (HSP70‐PROTAC) for Ferroptosis‐Driven Cancer Treatment” (Advanced Science, 2025).

Legend:
[1] = system: GSH; experiment: Intracellular GSH in HT1080 cells; format: cell-based, human; conditions: 0.5 and 1 µM, 24 h
Description: HT1080 cells were seeded into 10‐cm‐diameter culture dishes at a density of 2 × 10⁶ cells overnight and then exposed to GDAz‐3 (0.1, 0.5, and 1 µM). Followed by 24‐h incubation, the culture medium was discarded, and the cells were digested with trypsin. The cells were collected and washed with PBS, and threefold of protein removal reagent S was added. Two freeze‐thaw cycles were performed using liquid nitrogen and a 37 °C water bath, followed by a 5‐min ice bath. The samples were centrifuged at 10 000 × g for 10 min at 4 °C. The supernatant was collected and measured according to the instructions of the Total Glutathione Assay Kit (Beyotime Biotechnology, S0052) using a kinetic assay method.

[2] = molecular target: T1, GPX4 (Homo sapiens, UniProt P36969); experiment: GPX4 degradation by western blot in 786-O cells; format: cell-based; design: endogenous in cells; host or cells: 786-O; conditions: 24 h
T1 sequence (P36969 1-170 isoform P36969-2): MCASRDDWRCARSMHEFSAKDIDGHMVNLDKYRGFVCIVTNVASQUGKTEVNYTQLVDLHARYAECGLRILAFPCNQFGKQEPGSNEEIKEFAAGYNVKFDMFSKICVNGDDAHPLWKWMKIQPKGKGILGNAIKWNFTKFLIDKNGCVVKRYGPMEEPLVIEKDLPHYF
Description: As previously mentioned, drug resistance and limited application scope are the significant challenges of traditional PROTAC, due partly to CRBN/VHL mutations or low expression. In this study, we investigated whether the developed HSP70‐PROTAC could address these challenges. Specifically, we examined the developed HSP70‐PROTAC in scenarios where VHL‐ or CRBN‐based PROTACs are ineffective due to intrinsic or acquired resistance. Several previously reported representative GPX4‐targeting degraders, including dGPX4 (CRBN‐based PROTAC, Figure 1A), 8e (VHL‐based PROTAC, Figure 1B), and GDCNF‐11/2 (HSP90‐based HIM‐PROTAC, Figure 1C, the structure of the GDCNF‐11 derivative GDCNF‐2 was not shown) were selected as control agents.^[ [18], [23], [28] ^] […] The clear cell renal cell carcinoma (ccRCC) 786‐O cell line is a well‐established cancer cell model characterized by an intrinsic deficiency in VHL expression.^[ [43], [44], [45] ^] We also confirmed this characteristic through evaluating the VHL expression levels in several randomly selected cancer cell lines (Figure S10A, Supporting Information). We further selected 786‐O cells as a model to confirm whether HSP70‐PROTAC could be used in such cases as an alternative to VHL‐based degraders, because VHL‐based PROTACs cannot be used to treat kidney cancer with a mutation or deletion in the VHL gene.
Cells were seeded at a density of 4 × 10^5 cells well^−1 in 6‐well plates and allowed to incubate overnight. Cells were incubated with the indicated treatments. Thereafter, the cells were collected and lysed with RIPA buffer containing serine protease and phosphatase inhibitors for 30 min on ice. Proteins were quantified by using a BCA protein assay kit (Beyotime). Subsequently, SDS‐PAGE sample loading buffer was added, and the mixture was heated in a 100 °C metal bath for 10 min to denature the proteins. Protein samples from each group were separated by SDS‐PAGE gel and transferred to a PVDF membrane. After blocking with 5% skim milk for 1 h at room temperature, primary antibodies (GPX4: abcam (#ab125066, 1:1000); Hsp70: abcam (#ab2787, 1:1000); CHIP: HUABIO (#ST7108, 1:1000); UpingBio Technology Co., Ltd. (BRD4, #YP‐Ab‐18034, 1:1000; BAG‐1, #YP‐Ab‐00575, 1:1000); GAPDH: Proteintech (#60004‐1‐Ig, 1:50 000)) were used and incubated at 4 °C overnight on a rotary shaker. After washing the membranes with TBST buffer five times, the membranes were incubated with a second antibody (Cell Signaling Technology, #7074S, 1:1000 and #7076S, 1:1000) at room temperature for 2 h. Ultimately, the membrane was washed five times, and the antibody‐protein complexes were visualized using an ECL luminescence reagent (Biosharp, Shanghai, China). The relative intensities of the bands were analyzed by ImageJ and normalized to a loading control.

[3] = molecular target: T1, GPX4; experiment: GPX4 degradation by western blot in HT1080 cells; format: cell-based; design: determine the changes in the endogenous levels of GPX4 by western blot assay; endogenous in cells; host or cells: HT1080 fibrosarcoma cells, including siRNA-knockdown derivatives; conditions: for remaining activity at 0.5 µM: HT-1080, HT1080 cells, read-out: GPX4 % of control; for remaining activity at 1 µM: read-out: % of control (GPX4/GAPDH)
Procedure, shortened: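 HT1080 fibrosarcoma cells were treated 24 h with PROTACs at 0.1, 0.3, 1 and 3 µM. Endogenous GPX4 was measured by western blot of RIPA lysates, with band intensities normalized to a loading control.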

COc1ccc(-c2nc(-c3cc(C(F)(F)F)cc(C(F)(F)F)c3)n(Cc3ccc(C(=O)NCCOCCOCCOCCn4cc(COc5ccc(N(C(=O)CCl)C(C(=O)NCCc6ccccc6)c6cccs6)cc5Cl)nn4)cc3)c2-c2ccc(OC)cc2)cc1 (centres unmarked) [GDAz-3, 4-((2-(3,5-bis(trifluoromethyl)phenyl)-4,5-bis(4-methoxyphenyl)-1H-imidazol-1-yl)methyl)-N-(2-(2-(2-(2-(4-((2-chloro-4-(2-chloro-N-(2-oxo-2-(phenethylamino)-1-(thiophen-2-yl)ethyl)acetamido)phenoxy)methyl)-1H-1,2,3-triazol-1-yl)ethoxy)ethoxy)ethoxy)ethyl)benzamide]
Level of intracellular GSH [1]: significantly decreased
GPX4 degradation in 786-O cells ([2]; 0.5 µM): obvious GPX4 degradation
remaining activity at 0.1 µM ([2]; 786-0, 786-O cell line, 0.1 µM, read-out: GPX4 % of control): 89%
remaining activity at 0.5 µM ([2]; 786-0, 786-O cell line, 0.5 µM, read-out: GPX4 % of control): 54%
remaining activity at 1 µM ([2]; 786-0, 786-O cell line, 1 µM, read-out: GPX4 % of control): 33%
GPX4 degradation in wild-type and CRBN- or VHL-knockdown HT1080 cells ([3]; 0.5 µM, 24 h): promoted the degradation of GPX4
GPX4 degradation in BAG3-knockdown cells ([3]; BAG3 siRNA HT1080 cells, 24 h): completely abolished
GPX4 degradation in CHIP-knockdown cells ([3]; CHIP siRNA HT1080 cells, 24 h): did not induce any detectable protein degradation of GPX4
Reduction of the GPX4 protein level ([3]; HT1080 cells, 0.1 µM, 24 h): ≈ 50%
GPX4 degradation ([3]; HT1080 cells, 0.3 µM, 24 h (Figure 3A)): effectively triggered substantial GPX4 degradation
Sustained GPX4 degradation upon washout ([3]; HT1080 cells, 1 µM for 24 h, then rinsed with PBS): without obvious recovery even 24 h after removal of the degrader
GPX4 protein level, degradation kinetics ([3]; HT1080 cells, 1 µM, 8 h): obviously reduced GPX4 protein level
GPX4 degradation efficiency versus reported GPX4 degraders ([3]; HT1080 cells, 1 µM, 24 h): comparable GPX4 degradation efficiency
GPX4 protein level, degradation kinetics ([3]; HT1080 cells, 1 µM, 24 h): complete GPX4 depletion
DC50 ([3]; HT1080 cells, 24 h): 130 nM
GPX4 degradation effect in combination with 3-methyladenine (3-MA) ([3]; HT1080 cells, 24 h): partially rescued
GPX4 degradation effect after proteasome inhibitor ([3]; HT1080 cells, MG132 5 µM for 2 h before GDAz-3 for 24 h): completely abrogated
remaining activity at 0.5 µM ([3]; GDAz-3 0.5 µM 12 h after pre-treatment with MLN4924 2.5 µM for 2 h): 61%
remaining activity at 0.5 µM ([3]; GDAz-3 0.5 µM, 12 h): 45%
remaining activity at 1 µM ([3]; HT-1080, HT-1080, 1 µM, 24 h): 45%
remaining activity at 1 µM ([3]; HT-1080, HT-1080-siRNA-LAMP2A (LAMP2A knockdown), 1 µM, 24 h): 68%
GPX4 degradation in Hsc70-knockdown cells ([3]; Hsc70 siRNA HT1080 cells, 1 µM, 24 h): markedly abrogated
GPX4 degradation in Hsp70-knockdown cells ([3]; Hsp70 siRNA HT1080 cells, 24 h): not affected
